Data as given in patent publication US5859061A, “Bis-sulfonamides hydroxamic acids as MMP inhibitors” (Pharmacia & Upjohn Company, priority 1998, dated 1999).
pKi: −log10 of the molar value.

Key:
Assay type in all cases: biochemical
Conditions in all cases: in vitro, pH 7.5, room temperature, 15 min preincubation, substrate 1-3 hours
[1] = molecular target: collagenase; assay: particle concentration fluorescence assay, inhibition of collagenase
Method: (§1) Inhibitory activity is evaluated in one or more of the MMP enzymes (stromelysin, gelatinase, and collagenase) in vitro using particle concentration fluorescence assay. An inhibitor binds to MMP enzymes which prevents the degradation of a substrate by stromelysin, gelatinase, or collagenase. The substrate has attached to it a fluorescein and a biotin moiety. The intact substrate then binds to an avidin-coated particle via the biotin moiety. Once the particle is washed and dried, a fluorescent signal is generated since the fluorescent group is attached to the particle. Without an inhibitor present, the substrate is degraded by MMP enzymes and the fluorescein group is removed, therefore, no fluorescent signal can be detected. Testing compounds are dissolved in DMSO to the desired concentration, then the solutions are diluted to 1:5 with MMP buffer (50 mM Tris-HCl, pH 7.5; 150 mM NaCl; 0.02% NaN3). Serial two-fold dilutions of each compound are prepared. A concentrated, activated enzyme solution is transferred into each plate of the testing compounds, and the mixture is incubated at room temperature for 15 minutes. Thawed MMP substrate is then added into all plates, and the plates are incubated in the dark for 1-3 hours at room temperature. At this point, the substrate mixture is mixed with 0.1% avidin-coated polystyrene particles. After 15 minutes, the fluorescence values are measured following filtration and washing of the beads. Ki values are then calculated.

[2] = molecular target: gelatinase; assay: particle concentration fluorescence assay, inhibition of gelatinase
Method: as §1

[3] = molecular target: stromelysin (Homo sapiens, UniProt P08254); assay: particle concentration fluorescence assay, inhibition of stromelysin
Method: as §1

Sequence of stromelysin (P08254 100-477): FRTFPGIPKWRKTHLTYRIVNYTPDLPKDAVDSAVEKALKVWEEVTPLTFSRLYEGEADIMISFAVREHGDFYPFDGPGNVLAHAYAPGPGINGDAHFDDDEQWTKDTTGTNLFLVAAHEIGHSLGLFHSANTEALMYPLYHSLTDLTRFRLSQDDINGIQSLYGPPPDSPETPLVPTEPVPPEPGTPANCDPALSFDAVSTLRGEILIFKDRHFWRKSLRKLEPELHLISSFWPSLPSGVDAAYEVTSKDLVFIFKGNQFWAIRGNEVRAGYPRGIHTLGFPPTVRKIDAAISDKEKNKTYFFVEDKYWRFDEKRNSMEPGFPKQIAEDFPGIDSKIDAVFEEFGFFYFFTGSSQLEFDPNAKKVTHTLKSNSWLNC

SMILES	pKi [1]	pKi [2]	pKi [3]
Cc1ccc(S(=O)(=O)NCCC(NS(=O)(=O)c2ccc(C)cc2)C(=O)NO)cc1 (stereo not drawn) [Example 1, N-Hydroxy-2,4-bis-[[4-methylphenylsulfonyl]amino] butanamide]	7.32	9.03	8.62
O=C(NO)[C@H](CCNS(=O)(=O)c1ccccc1)NS(=O)(=O)c1ccccc1 [Example 6, (S)-N-Hydroxy-2,4-bis-[[phenylsulfonyl]amino] butanamide]	5.52	6.55	5.70
Cc1ccc(S(=O)(=O)NCC[C@@H](NS(=O)(=O)c2ccc(C)cc2)C(=O)NO)cc1 [Example 2, (R)-N-Hydroxy-2,4-bis-[[4-methylphenylsulfonyl]amino] butanamide]	7.37	8.89	8.49
O=C(NO)C(CCNS(=O)(=O)c1ccc(F)cc1)NS(=O)(=O)c1ccc(F)cc1 (stereo not drawn) [Example 5, N-Hydroxy-2,4-bis-[[4-fluorophenylsulfonyl]amino] butanamide]	7.22	7.80	7.35
Cc1ccc(S(=O)(=O)NCC(NS(=O)(=O)c2ccc(C)cc2)C(=O)NO)cc1 (stereo not drawn) [Example 4, N-Hydroxy-2,3-bis-[[4-methylphenylsulfonyl]amino] propionamide]	6.35	7.70	6.07
Cc1ccc(S(=O)(=O)NCCCC(NS(=O)(=O)c2ccc(C)cc2)C(=O)NO)cc1 (stereo not drawn) [Example 7, N-Hydroxy-2,5-bis-[[4-methylphenylsulfonyl]amino] valeramide]	6.24	8.29	6.97
COc1ccc(S(=O)(=O)NCCC(NS(=O)(=O)c2ccc(OC)cc2)C(=O)NO)cc1 (stereo not drawn) [Example 8, N-Hydroxy-2,4-bis-[[4-methoxyphenylsulfonyl]amino] butanamide]	7.03	9.15	8.92
Cc1ccc(S(=O)(=O)NCC[C@H](NS(=O)(=O)c2ccc(C)cc2)C(=O)NO)cc1 [Example 3, (S)-N-Hydroxy-2,4-bis-[[4-methylphenylsulfonyl]amino] butanamide]	6.08	7.46	7.32
